# Legend:
# Test in all cases: relative viability (nuclei count vs DMSO), 5 days (fraction); higher = more cells survive
# HCC-366 = tested on: HCC-366
# Procedure, shortened: (§1)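 Nuclei were stained with Hoechst during a one-step fixation (final 0.05% Triton X-100, 1% formaldehyde, 1 ug/ml Hoechst) carried out 5 days after dosing, then counted on 4× images. The cells, lung cancer lines in 1536-well plates, had been dosed by pin tool the day after seeding with one drug alone or a fixed anchor-drug dose plus five library-drug doses (not always all listed) in √10 steps. Relative viability is the nuclei count in treated wells divided by that in vehicle wells, and each value is the median of duplicate plates.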
# NCI-H2228 = tested on: NCI-H2228
# Procedure, shortened: as §1
# NCI-H23 = tested on: NCI-H23
# Procedure, shortened: as §1
# HOP-62 = tested on: HOP-62
# Procedure, shortened: as §1
# COR-L 105 = tested on: COR-L 105
# Procedure, shortened: as §1
# NCI-H1355 = tested on: NCI-H1355
# Procedure, shortened: as §1
# SW 1573 = tested on: SW 1573
# Procedure, shortened: as §1
# NCI-H1437 = tested on: NCI-H1437
# Procedure, shortened: as §1
# EMC-BAC-2 = tested on: EMC-BAC-2
# Procedure, shortened: as §1
# NCI-H1755 = tested on: NCI-H1755
# Procedure, shortened: as §1
# NCI-H1975 = tested on: NCI-H1975
# Procedure, shortened: as §1
# CAL-12T = tested on: CAL-12T
# Procedure, shortened: as §1
# LCLC-103H = tested on: LCLC-103H
# Procedure, shortened: as §1
# NCI-H1395 = tested on: NCI-H1395
# Procedure, shortened: as §1
# NCI-H727 = tested on: NCI-H727
# Procedure, shortened: as §1
# NCI-H460 = tested on: NCI-H460
# Procedure, shortened: as §1
# A-427 = tested on: A-427
# Procedure, shortened: as §1
# SK-LU-1 = tested on: SK-LU-1
# Procedure, shortened: as §1
# NCI-H1915 = tested on: NCI-H1915
# Procedure, shortened: as §1
# HARA = tested on: HARA
# Procedure, shortened: as §1
# HCC-827 = tested on: HCC-827
# Procedure, shortened: as §1
# NCI-H2009 = tested on: NCI-H2009
# Procedure, shortened: as §1
smiles,measurement,setting,value
C=C1C(=O)O[C@@H](CCCCCCCC)[C@@H]1C(=O)O [C-75] + Cc1cc(Nc2cc(N3CCN(C)CC3)nc(Sc3ccc(NC(=O)C4CC4)cc3)n2)n[nH]1 [Tozasertib] (partner 0.1 µM),relative viability,HCC-366; first compound 0.08 µM,0.197
same,relative viability,HCC-366; first compound 0.253 µM,0.151
same,relative viability,HCC-366; first compound 0.8 µM,0.158
same,relative viability,HCC-366; first compound 8 µM,0.115
same,relative viability,NCI-H2228; first compound 0.08 µM,0.29
same,relative viability,NCI-H2228; first compound 0.253 µM,0.344
same,relative viability,NCI-H2228; first compound 0.8 µM,0.26
same,relative viability,NCI-H2228; first compound 2.53 µM,0.25
same,relative viability,NCI-H2228; first compound 8 µM,0.269
same,relative viability,NCI-H23; first compound 0.08 µM,0.36
same,relative viability,NCI-H23; first compound 0.253 µM,0.57
same,relative viability,NCI-H23; first compound 0.8 µM,0.417
same,relative viability,NCI-H23; first compound 2.53 µM,0.339
same,relative viability,NCI-H23; first compound 8 µM,0.254
same,relative viability,HOP-62; first compound 0.08 µM,0.373
same,relative viability,HOP-62; first compound 0.253 µM,0.389
same,relative viability,HOP-62; first compound 0.8 µM,0.363
same,relative viability,HOP-62; first compound 2.53 µM,0.385
same,relative viability,HOP-62; first compound 8 µM,0.335
same,relative viability,COR-L 105; first compound 0.08 µM,0.366
same,relative viability,COR-L 105; first compound 0.253 µM,0.167
same,relative viability,COR-L 105; first compound 0.8 µM,0.412
same,relative viability,COR-L 105; first compound 2.53 µM,0.351
same,relative viability,COR-L 105; first compound 8 µM,0.341
same,relative viability,NCI-H1355; first compound 0.08 µM,0.595
same,relative viability,NCI-H1355; first compound 0.253 µM,0.579
same,relative viability,NCI-H1355; first compound 0.8 µM,0.522
same,relative viability,NCI-H1355; first compound 2.53 µM,0.554
same,relative viability,NCI-H1355; first compound 8 µM,0.517
same,relative viability,SW 1573; first compound 0.08 µM,0.268
same,relative viability,SW 1573; first compound 0.253 µM,0.161
same,relative viability,SW 1573; first compound 0.8 µM,0.189
same,relative viability,SW 1573; first compound 2.53 µM,0.215
same,relative viability,SW 1573; first compound 8 µM,0.184
same,relative viability,NCI-H1437; first compound 0.08 µM,0.387
same,relative viability,NCI-H1437; first compound 0.253 µM,0.462
same,relative viability,NCI-H1437; first compound 0.8 µM,0.442
same,relative viability,NCI-H1437; first compound 2.53 µM,0.355
same,relative viability,NCI-H1437; first compound 8 µM,0.437
same,relative viability,EMC-BAC-2; first compound 0.08 µM,0.279
same,relative viability,EMC-BAC-2; first compound 0.253 µM,0.288
same,relative viability,EMC-BAC-2; first compound 0.8 µM,0.294
same,relative viability,EMC-BAC-2; first compound 2.53 µM,0.235
same,relative viability,EMC-BAC-2; first compound 8 µM,0.315
same,relative viability,NCI-H1755; first compound 0.08 µM,0.568
same,relative viability,NCI-H1755; first compound 0.253 µM,0.638
same,relative viability,NCI-H1755; first compound 0.8 µM,0.552
same,relative viability,NCI-H1755; first compound 2.53 µM,0.512
same,relative viability,NCI-H1755; first compound 8 µM,0.572
same,relative viability,NCI-H1975; first compound 0.08 µM,0.873
same,relative viability,NCI-H1975; first compound 0.253 µM,0.757
same,relative viability,NCI-H1975; first compound 0.8 µM,0.684
same,relative viability,NCI-H1975; first compound 2.53 µM,0.732
same,relative viability,NCI-H1975; first compound 8 µM,0.78
same,relative viability,CAL-12T; first compound 0.08 µM,0.281
same,relative viability,CAL-12T; first compound 0.253 µM,0.423
same,relative viability,CAL-12T; first compound 0.8 µM,0.312
same,relative viability,CAL-12T; first compound 2.53 µM,0.281
same,relative viability,CAL-12T; first compound 8 µM,0.345
same,relative viability,LCLC-103H; first compound 0.08 µM,0.597
same,relative viability,LCLC-103H; first compound 0.253 µM,0.543
same,relative viability,LCLC-103H; first compound 0.8 µM,0.428
same,relative viability,LCLC-103H; first compound 2.53 µM,0.514
same,relative viability,LCLC-103H; first compound 8 µM,0.406
same,relative viability,NCI-H1395; first compound 0.08 µM,0.73
same,relative viability,NCI-H1395; first compound 0.253 µM,0.732
same,relative viability,NCI-H1395; first compound 0.8 µM,0.803
same,relative viability,NCI-H1395; first compound 2.53 µM,0.669
same,relative viability,NCI-H1395; first compound 8 µM,0.795
same,relative viability,NCI-H727; first compound 0.08 µM,0.623
same,relative viability,NCI-H727; first compound 0.253 µM,0.623
same,relative viability,NCI-H727; first compound 0.8 µM,0.559
same,relative viability,NCI-H727; first compound 8 µM,0.674
same,relative viability,NCI-H460; first compound 0.08 µM,0.405
same,relative viability,NCI-H460; first compound 0.253 µM,0.798
same,relative viability,NCI-H460; first compound 0.8 µM,0.391
same,relative viability,NCI-H460; first compound 2.53 µM,0.657
same,relative viability,NCI-H460; first compound 8 µM,0.449
same,relative viability,A-427; first compound 0.08 µM,0.219
same,relative viability,A-427; first compound 0.253 µM,0.264
same,relative viability,A-427; first compound 0.8 µM,0.221
same,relative viability,A-427; first compound 2.53 µM,0.199
same,relative viability,A-427; first compound 8 µM,0.175
same,relative viability,SK-LU-1; first compound 0.08 µM,0.349
same,relative viability,SK-LU-1; first compound 0.253 µM,0.374
same,relative viability,SK-LU-1; first compound 0.8 µM,0.357
same,relative viability,SK-LU-1; first compound 2.53 µM,0.314
same,relative viability,SK-LU-1; first compound 8 µM,0.311
same,relative viability,NCI-H1915; first compound 0.08 µM,0.405
same,relative viability,NCI-H1915; first compound 0.253 µM,0.403
same,relative viability,NCI-H1915; first compound 0.8 µM,0.432
same,relative viability,NCI-H1915; first compound 2.53 µM,0.409
same,relative viability,NCI-H1915; first compound 8 µM,0.429
same,relative viability,HARA; first compound 0.08 µM,0.149
same,relative viability,HARA; first compound 0.253 µM,0.0813
same,relative viability,HARA; first compound 0.8 µM,0.112
same,relative viability,HARA; first compound 2.53 µM,0.0971
same,relative viability,HARA; first compound 8 µM,0.145
same,relative viability,HCC-827; first compound 0.08 µM,0.428
same,relative viability,HCC-827; first compound 0.253 µM,0.413
same,relative viability,HCC-827; first compound 0.8 µM,0.431
same,relative viability,HCC-827; first compound 2.53 µM,0.379
same,relative viability,HCC-827; first compound 8 µM,0.411
same,relative viability,NCI-H2009; first compound 0.08 µM,0.724
same,relative viability,NCI-H2009; first compound 0.253 µM,0.743
same,relative viability,NCI-H2009; first compound 0.8 µM,0.743
same,relative viability,NCI-H2009; first compound 2.53 µM,0.707
same,relative viability,NCI-H2009; first compound 8 µM,0.691
